Measured values taken from patent publication US11020358B2, “Method for the anti-senescence of and/or rejuvenating stem cells” (GWO XI STEM CELL APPLIED TECHNOLOGY CO., LTD., priority 2014, dated 2021).

Assays:
Type in all cases: cell-based, human
[1] = system: telomerase; experiment: Telomerase activity assay (TRAP) in ADSCs
Description: It has been know that the activity of telomerase plays a key role in controlling cell senescence. The activity of telomerase in each of the “untreated group,” “H2O2 group” and “TC6 group” ADSCs from Example 1 (1) was analyzed by Telomeric Repeat Amplification Protocol (TRAP) as follows. The 3′-end primer of telomere (i.e., Telo TAGGG) was extended by PCR under the catalysis of telomerase to amplify the TTAGGG repeat sequence. Then, signals of the product were detected by enzyme-linked immunosorbent assay (ELISA). The results are shown in FIG. 7, wherein the activity of telomerase in HEK293 cells (without any treatment) was served as a positive control group.

[2] = system: hBMMSCs; experiment: SA-β-gal activity assay in hBMMSCs
Description: Three portions of equal volume of the above culture medium containing the sub-cultured hBMMSCs were provided. The first and second portions were handled by adding thereinto H2O2 at a final concentration of 100 μM, reacting for 2 hours to induce senescence of the hBMMSCs, replacing the culture medium with a fresh culture medium, adding thereinto TC at final concentrations of 0 and 6 μM respectively, and reacting for 6 hours to obtain “H2O2 group (i.e., treated with H2O2 for 2 hours, but not treated with TC)” and “H2O2+TC6 group (i.e., treated with H2O2 for 2 hours and then treated with 6 μM of TC for 6 hours) hBMMSCs. The third portion without any treatment was referred to as “untreated group” hBMMSCs.
The ADSCs in each sample of the group obtained from Example 1 (1) were washed with PBS twice, fixed with 3% formaldehyde and washed with PBS once. […]
The staining solution was removed. […] The cells were observed and photographed under a microscope with 10-fold magnification, and the percentage of SA-β-gal activity-positive cells was calculated. […]

[3] = system: SIRT1 gene; experiment: Quantitative RT-PCR of SIRT1 gene in ADSCs
Description: Four portions of equal volume of the above culture medium containing the sub-cultured ADSCs were separately handled by adding thereinto H2O2 (purchased from Sigma-Aldrich) at a final concentration of 100 μM and reacting for 2 hours to induce senescence of the ADSCs, replacing the culture medium with a fresh culture medium, adding thereinto TC (trans-cinnamaldehyde, purchased from Sigma-Aldrich) at a final concentration of 0, 2, 4 or 6 μM and reacting for 6 hours, so as to obtain “H2O2 group (i.e., treated with H2O2 for 2 hours, but not treated with TC),” “H2O2+TC2 group (i.e., treated with H2O2 for 2 hours and then treated with 2 μM of TC for 6 hours),” “H2O2+TC4 group (i.e., treated with H2O2 for 2 hours and then treated with 4 μM of TC for 6 hours),” and “H2O2+TC6 group (i.e., treated with H2O2 for 2 hours and then treated with 6 μM of TC for 6 hours)” ADSCs.
Five portions of equal volume of the above culture medium containing the sub-cultured ADSCs were separately handled by adding thereinto with H2O2 at a final concentration of 100 μM and reacting for 2 hours to induce senescence of the ADSCs. Then, the culture medium in each of the five portions was replaced with a fresh culture medium. The first portion was handed by adding thereinto TC at a final concentration of 6 μM and reacting for 6 hours to obtain “TC6H group” ADSCs. The second to fifth portions were handled by adding thereinto TC at a final concentration of 6 μM, reacting for 6 hours, and then transferring and incubating the ADSCs in DMEM for 12, 24, 48 and 72 hours respectively to obtain “TC12H group,” “TC24H group,” “TC48H group” and “TC72H group” ADSCs. […]
Each of the cDNA of ADSCs of different groups from Experiment (3-1) was handled as follows. […] The mixture was then placed in a real-time quantitative PCR machine (ABI prism 7700 sequence detection system) to perform a reaction for quantifying the gene expression levels. […]

Row | Structure (SMILES) | activity of telomerase ([1]; ADSCs, 6 μM TC (“TC6 group”), compared to H2O2 group) | number of the SA-β-gal activity-positive hBMMSCs ([2]; H2O2+TC6 group (6 μM TC 6 h after H2O2) compared to H2O2 group) | expression levels of SIRT1 gene (quantitative RT-PCR) ([3]; ADSCs treated only with 2, 4 and 6 μM TC 6 h (FIG. 5A)) | time for which the effect of TC on increasing SIRT1 gene expression is maintained ([3]; H2O2-senescent ADSCs, 6 μM TC 6 h, then incubated in DMEM 12-72 h, no significant difference to TC6H group) | expression levels of SIRT1 gene (quantitative RT-PCR) ([3]; H2O2-senescent ADSCs, 2, 4 and 6 μM TC 6 h, compared to H2O2 group (FIG. 5B)) | activity of telomerase ([1]; H2O2 group ADSCs compared to untreated group) | number of the SA-β-gal activity-positive hBMMSCs ([2]; H2O2 group (100 μM 2 h) compared to untreated group)
1 | O=C/C=C/c1ccccc1 [TC, trans-cinnamaldehyde] | significantly increased | significantly reduced | significantly increased along with the increment in the concentration of TC | at least 72 hours | significantly increased along with the increment in the concentration of TC | – | –
2 | OO [H2O2, reference compound] | – | – | – | – | – | significantly decreased | significantly increased
